These results are taken from patent US12565490B2, “Inhibitors of Receptor Interacting Protein Kinase I for the treatment of disease” (Board of Regents, The University of Texas System, priority 2020, dated 2026).

In this assay the test system is human monocytic cell line U937. Briefly: Human U937 cellular necroptosis assay. Format: cell-based. The conditions noted are these: U-937; U937 cells stimulated with 25 ng/mL human TNFalpha and 25 μM z-VAD-FMK; 22 hr; viability by Cell Titer-Glo 2.0; read-out: hU937 IC50. The procedure, abridged:
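U937 cells (5000/well) driven to necroptosis by 25 ng/mL human TNFalpha plus 25 μM z-VAD-FMK alongside 1:3-diluted compounds, 22 hr at 37° C, 5% CO2. Viability by CellTiter-Glo luminescence; IC50 from four-parameter logistic fit.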
On to `Cc1cccc(-c2nc(C(=O)N[C@H]3COc4cc(Cl)cnc4N(C)C3=O)ncc2Cl)c1` [Example 106, (S)-5-chloro-N-(8-chloro-5-methyl-4-oxo-2,3,4,5-tetrahydropyrido[3,2-b]-[1,4]oxazepin-3-yl)-4-(m-tolyl)-pyrimidine-2-carboxamide], for which the 50% inhibitory concentration (IC50) (usually the concentration at which inhibition is half-maximal) came to 14.8 nM.

For the compound `Cc1ccn(-c2nc(C(=O)N[C@H]3COc4cc(Cl)cnc4N(C)C3=O)ncc2Cl)n1` [Example 107, (S)-5-chloro-N-(8-chloro-5-methyl-4-oxo-2,3,4,5-tetrahydropyrido [3,2-b]-[1,4]oxazepin-3-yl)-4-(3-methyl-1H-pyrazol-1-yl)-pyrimidine-2-carboxamide], the IC50 was 606 nM.

For the compound `CN1C(=O)[C@@H](NC(=O)c2ncc(Cl)c(-c3ncccc3F)n2)COc2cc(Cl)cnc21` [Example 108, (S)-5-chloro-N-(8-chloro-5-methyl-4-oxo-2,3,4,5-tetrahydropyrido[3,2-b]-[1,4]oxazepin-3-yl)-4-(3-fluoropyridin-2-yl)pyrimidine-2-carboxamide], the IC50 turned out to be 121 nM.

With `CN1C(=O)[C@@H](NC(=O)c2ncc(Cl)c(-c3cncc(F)c3)n2)COc2cc(Cl)cnc21` [Example 109, (S)-5-chloro-N-(8-chloro-5-methyl-4-oxo-2,3,4,5-tetrahydropyrido[3,2-b]-[1,4]oxazepin-3-yl)-4-(5-fluoropyridin-3-yl)pyrimidine-2-carboxamide], the IC50 was determined as 59.2 nM. As for `Cc1ncc(-c2nc(C(=O)N[C@H]3COc4cc(Cl)cnc4N(C)C3=O)ncc2Cl)cn1` [Example 110, (S)-5-chloro-N-(8-chloro-5-methyl-4-oxo-2,3,4,5-tetrahydropyrido[3,2-b]-[1,4]oxazepin-3-yl)-2′-methyl-[4,5′-bipyrimidine]-2-carboxamide], the figure is 3560 nM; as for `CN1C(=O)[C@@H](NC(=O)c2ncc(Cl)c(-c3cncnc3)n2)COc2cc(Cl)cnc21` [Example 111, (S)-5-chloro-N-(8-chloro-5-methyl-4-oxo-2,3,4,5-tetrahydropyrido[3,2-b]-[1,4]oxazepin-3-yl)-[4,5′-bipyrimidine]-2-carboxamide], 485 nM; as for `CN1C(=O)[C@@H](NC(=O)c2ncc(Cl)c(-c3cnccn3)n2)COc2cc(Cl)cnc21` [Example 112, (S)-5-chloro-N-(8-chloro-5-methyl-4-oxo-2,3,4,5-tetrahydropyrido[3,2-b]-[1,4]oxazepin-3-yl)-4-(pyrazin-2-yl)pyrimidine-2-carboxamide], 92.9 nM.

With `CN1C(=O)[C@@H](NC(=O)c2ncc(Cl)c(-c3cccc4[nH]cnc34)n2)COc2cc(Cl)cnc21` [Example 113, (S)-4-(1H-benzo[d]imidazol-4-yl)-5-chloro-N-(8-chloro-5-methyl-4-oxo-2,3,4,5-tetrahydropyrido[3,2-b]-[1,4]oxazepin-3-yl)pyrimidine-2-carboxamide], the IC50 came to 7760 nM. Take `CN1C(=O)[C@@H](NC(=O)c2ncc(Cl)c(-c3cccc4[nH]ncc34)n2)COc2cc(Cl)cnc21` [Example 114, (S)-5-chloro-N-(8-chloro-5-methyl-4-oxo-2,3,4,5-tetrahydropyrido[3,2-b]-[1,4]oxazepin-3-yl)-4-(1H-indazol-4-yl)pyrimidine-2-carboxamide]: the IC50 worked out at 63.1 nM.

On to `CN1C(=O)[C@@H](NC(=O)c2ncc(Cl)c(-c3ccn4cnnc4c3)n2)COc2cc(Cl)cnc21` [Example 115, (S)-4-([1,2,4]triazolo[4,3-a]pyridin-7-yl)-5-chloro-N-(8-chloro-5-methyl-4-oxo-2,3,4,5-tetrahydropyrido[3,2-b]-[1,4]oxazepin-3-yl)pyrimidine-2-carboxamide], for which the IC50 came out at 330 nM. To `Cc1cnc(C(=O)N[C@H]2COc3cc(Cl)cnc3N(C)C2=O)nc1-c1ccccc1F` [Example 116, (S)-N-(8-chloro-5-methyl-4-oxo-2,3,4,5-tetrahydro-pyrido[3,2-b][1,4]oxazepin-3-yl)-4-(2-fluorophenyl)-5-methylpyrimidine-2-carboxamide] belongs 8.42 nM; to `Cc1cnc(C(=O)N[C@H]2COc3cc(Cl)cnc3N(C)C2=O)nc1-c1cccc(F)c1F` [Example 117, (S)-N-(8-chloro-5-methyl-4-oxo-2,3,4,5-tetrahydro-pyrido[3,2-b][1,4]oxazepin-3-yl)-4-(2,3-difluorophenyl)-5-methylpyrimidine-2-carboxamide], 14.1 nM; to `Cc1cnc(C(=O)N[C@H]2COc3cc(Cl)cnc3N(C)C2=O)nc1-c1ccncc1F` [Example 120, (S)-N-(8-chloro-5-methyl-4-oxo-2,3,4,5-tetrahydro-pyrido[3,2-b][1,4]oxazepin-3-yl)-4-(3-fluoropyridin-4-yl)-5-methylpyrimidine-2-carboxamide], 134 nM. Regarding `Cc1cnc(C(=O)N[C@H]2COc3cc(Cl)cnc3N(C)C2=O)nc1-c1ccc(F)cn1` [Example 121, (S)-N-(8-chloro-5-methyl-4-oxo-2,3,4,5-tetrahydro-pyrido[3,2-b][1,4]oxazepin-3-yl)-4-(5-fluoropyridin-2-yl)-5-methylpyrimidine-2-carboxamide], the concentration for half-maximal inhibition (IC50) was found to be 30.2 nM. For `Cc1cnc(C(=O)N[C@H]2COc3cc(Cl)cnc3N(C)C2=O)nc1-c1cncnc1` [Example 122, (S)-N-(8-chloro-5-methyl-4-oxo-2,3,4,5-tetrahydro-pyrido[3,2-b][1,4]oxazepin-3-yl)-5-methyl-[4,5′-bipyrimidine]-2-carboxamide], the IC50 amounted to 144 nM. Consider `Cc1cnc(C(=O)N[C@H]2COc3cc(Cl)cnc3N(C)C2=O)nc1-c1cnccn1` [Example 123, (S)-N-(8-chloro-5-methyl-4-oxo-2,3,4,5-tetrahydro-pyrido[3,2-b][1,4]oxazepin-3-yl)-5-methyl-4-(pyrazin-2-yl)-pyrimidine-2-carboxamide], for which the half-inhibitory concentration (IC50) came out at 48.5 nM. Consider `Cc1cnc(C(=O)N[C@H]2COc3cc(Cl)cnc3N(C)C2=O)nc1-c1ccc2nccn2c1` [Example 124, (S)-N-(8-chloro-5-methyl-4-oxo-2,3,4,5-tetrahydropyrido[3,2-b][1,4]oxazepin-3-yl)-4-(imidazo[1,2-a]pyridin-6-yl)-5-methylpyrimidine-2-carboxamide], for which the half-maximal inhibitory concentration (IC50) worked out at 165 nM.

As for `COc1cnc(C(=O)N[C@H]2COc3cc(Cl)cnc3N(C)C2=O)nc1-c1ccccc1` [Example 125, (S)-N-(8-chloro-5-methyl-4-oxo-2,3,4,5-tetrahydro-pyrido[3,2-b][1,4]oxazepin-3-yl)-5-methoxy-4-phenylpyrimidine-2-carboxamide], the IC50 was 128 nM. For the compound `CN1C(=O)[C@@H](NC(=O)c2ncc(CO)c(-c3ccccc3)n2)COc2cc(Cl)cnc21` [Example 126, (S)-N-(8-chloro-5-methyl-4-oxo-2,3,4,5-tetrahydro-pyrido[3,2-b][1,4]oxazepin-3-yl)-5-(hydroxymethyl)-4-phenylpyrimidine-2-carboxamide], the IC50 was 30 nM. To `CN1C(=O)[C@@H](NC(=O)c2ncc(S(C)(=N)=O)c(-c3ccccc3)n2)COc2cc(Cl)cnc21` (stereo partly drawn) [Example 127, N-((S)-8-chloro-5-methyl-4-oxo-2,3,4,5-tetrahydro-pyrido[3,2-b][1,4]oxazepin-3-yl)-5-(S-methylsulfonimidoyl)-4-phenylpyrimidine-2-carboxamide] belongs 3950 nM.

As to `CN1C(=O)[C@@H](NC(=O)c2ncc(Cl)c(-c3cccc(F)c3)n2)COc2cc(C#N)ccc21` [Example 128, (S)-5-chloro-N-(8-cyano-5-methyl-4-oxo-2,3,4,5-tetrahydrobenzo[b]-[1,4]oxazepin-3-yl)-4-(3-fluorophenyl)pyrimidine-2-carboxamide], the IC50 was determined as 16.2 nM. As for `CN1C(=O)[C@@H](NC(=O)c2ncc(Cl)c(-c3ccc(F)cc3)n2)COc2cc(C#N)ccc21` [Example 129, (S)-5-chloro-N-(8-cyano-5-methyl-4-oxo-2,3,4,5-tetrahydrobenzo[b]-[1,4]oxazepin-3-yl)-4-(4-fluorophenyl)pyrimidine-2-carboxamide], the IC50 is 13.8 nM. For `CN1C(=O)[C@@H](NC(=O)c2ncc(Cl)c(-c3cc(F)ccc3F)n2)COc2cc(C#N)ccc21` [Example 130, (S)-5-chloro-N-(8-cyano-5-methyl-4-oxo-2,3,4,5-tetrahydrobenzo[b]-[1,4]oxazepin-3-yl)-4-(2,5-difluorophenyl)pyrimidine-2-carboxamide], the IC50 is 16.1 nM. As for `CN1C(=O)[C@@H](NC(=O)c2ncc(Cl)c(-c3ccc(Cl)cc3)n2)COc2cc(C#N)ccc21` [Example 131, (S)-5-chloro-4-(4-chlorophenyl)-N-(8-cyano-5-methyl-4-oxo-2,3,4,5-tetrahydrobenzo[b]-[1,4]oxazepin-3-yl)pyrimidine-2-carboxamide], the figure is 22.1 nM. On to `Cc1ccc(-c2nc(C(=O)N[C@H]3COc4cc(C#N)ccc4N(C)C3=O)ncc2Cl)cc1F` [Example 132, (S)-5-chloro-N-(8-cyano-5-methyl-4-oxo-2,3,4,5-tetrahydrobenzo[b]-[1,4]oxazepin-3-yl)-4-(3-fluoro-4-methylphenyl)pyrimidine-2-carboxamide], for which the IC50 turned out to be 20.2 nM. As for `Cc1cnc(C(=O)N[C@H]2COc3cc(C#N)ccc3N(C)C2=O)nc1C12CCC(CC1)CC2` [Example 133, (S)-4-(bicyclo[2.2.2]octan-1-yl)-N-(8-cyano-5-methyl-4-oxo-2,3,4,5-tetrahydrobenzo[b]-[1,4]oxazepin-3-yl)-5-methylpyrimidine-2-carboxamide], the figure is 160 nM; as for `Cc1cnc(C(=O)N[C@H]2COc3cc(C#N)ccc3N(C)C2=O)nc1C1CCOCC1` [Example 134, (S)-N-(8-cyano-5-methyl-4-oxo-2,3,4,5-tetrahydrobenzo[b]-[1,4]oxazepin-3-yl)-5-methyl-4-(tetrahydro-2H-pyran-4-yl)-pyrimidine-2-carboxamide], 246 nM. On to `Cc1cnc(C(=O)N[C@H]2COc3cc(C#N)ccc3N(C)C2=O)nc1-c1cccc(F)c1` [Example 135, (S)-N-(8-cyano-5-methyl-4-oxo-2,3,4,5-tetrahydrobenzo[b]-[1,4]oxazepin-3-yl)-4-(3-fluorophenyl)-5-methylpyrimidine-2-carboxamide], for which the IC50 came to 17.6 nM.
